Experimental data as given in ChEMBL document CHEMBL6078704, “Redesigning Berberines and Sanguinarines to Target Soluble Epoxide Hydrolase for Enhanced Anti-Inflammatory Efficacy” (J Med Chem, 2024).
Calls of active or inactive are those of the source. The rule behind the calls is not given here.

Experiments:
[1] = Half life in Sprague-Dawley rat at 20 mg/kg, po measured up to 24 hrs; assay type: ADME, organism-based; conditions: in vivo
[2] = Acute toxicity in BALB/c mouse assessed as pathological changes in liver tissue by measuring hemorrhage at 100 mg/kg, po single dose measured for 24 hrs; assay type: organism-based; conditions: in vivo
[3] = Tmax in Sprague-Dawley rat at 5 mg/kg, iv measured up to 24 hrs; assay type: ADME, organism-based; conditions: in vivo
[4] = system: Mus musculus; test: In vivo inhibition sEH activity in cerulein-induced acute pancreatitis in CD1 mouse model assessed as enzyme activity in pancreatic homogenate at 20 mg/kg, ip administered 30 and 150 mins post-cerulein treatment measured after 6 hrs post-cerulein treatment; assay type: functional, organism-based; conditions: time 30-360 min
[5] = system: Staphylococcus aureus; test: Antimicrobial activity against methicillin-resistant Staphylococcus aureus 19B120 by microbroth dilution method; assay type: functional
[6] = system: HEK-293T; test: Cytotoxicity against human 293T cells assessed as cell viability at 0.5 to 5 uM measured after 48 hrs by CCK-8 assay; assay type: toxicity, cell-based; conditions: dose 0.5-5 µM
[7] = system: Mus musculus; test: Antiinflammatory activity against cerulein-induced acute pancreatitis in CD1 mouse assessed as increase in pancreatic 14,15-EET/DHET ratio at 20 mg/kg, ip pretreated with cerulein followed by compound injection on 30 and 150 mins and measured 6 hrs post cerulein treatment relative to model group; assay type: functional; conditions: time 30-360 min
[8] = Acute toxicity in BALB/c mouse assessed as pathological changes in kidney tissue by measuring hemorrhage at 100 mg/kg, po single dose measured for 24 hrs; assay type: organism-based; conditions: in vivo
[9] = Half life in Sprague-Dawley rat at 5 mg/kg, iv measured up to 24 hrs; assay type: ADME, organism-based; conditions: in vivo
[10] = system: Mus musculus; test: Antiinflammatory activity against cerulein-induced acute pancreatitis in CD1 mouse assessed as increase in pancreatic 8,9-EET/DHET ratio at 20 mg/kg, ip pretreated with cerulein followed by compound injection on 30 and 150 mins and measured 6 hrs post cerulein treatment relative to model group; assay type: functional; conditions: time 30-360 min
[11] = Clearance in Sprague-Dawley rat at 5 mg/kg, iv measured up to 24 hrs; assay type: ADME, organism-based; conditions: in vivo
[12] = Acute toxicity in female BALB/c mouse assessed as physiological changes at 100 mg/kg, po single dose measured for 24 hrs; assay type: organism-based; conditions: in vivo
[13] = Acute toxicity in BALB/c mouse assessed as pathological changes in kidney tissue by measuring necrosis at 100 mg/kg, po single dose measured for 24 hrs; assay type: organism-based; conditions: in vivo
[14] = Clearance in Sprague-Dawley rat at 20 mg/kg, po measured up to 24 hrs; assay type: ADME, organism-based; conditions: in vivo
[15] = Acute toxicity in BALB/c mouse assessed as pathological changes in kidney tissue by measuring inflammation at 100 mg/kg, po single dose measured for 24 hrs; assay type: organism-based; conditions: in vivo
[16] = AUC (0 to infinity) in Sprague-Dawley rat at 20 mg/kg, po measured up to 24 hrs; assay type: ADME, organism-based; conditions: in vivo
[17] = Volume of distribution (Vz) in Sprague-Dawley rat at 5 mg/kg, iv measured up to 24 hrs; assay type: ADME, organism-based; conditions: in vivo, read-out: Vz
[18] = system: Staphylococcus aureus; test: Antimicrobial activity against Staphylococcus aureus ATCC 29213 by microbroth dilution method; assay type: functional
[19] = Acute toxicity in BALB/c mouse assessed as pathological changes in liver tissue by measuring necrosis at 100 mg/kg, po single dose measured for 24 hrs; assay type: organism-based; conditions: in vivo
[20] = system: Mus musculus; test: (§1) Anti-inflammatory activity in cerulein-induced acute pancreatitis in CD1 mouse model assessed as decrease in plasma TNFalpha level at 20 mg/kg, ip administered 30 and 150 mins post-cerulein treatment measured after 6 hrs post-cerulein treatment by ELISA; assay type: functional, organism-based
[21] = system: HepG2; test: Cytotoxicity against human HepG2 cells assessed as cell viability at 0.5 to 5 uM measured after 48 hrs by CCK-8 assay; assay type: toxicity, cell-based; conditions: hepg2, 48 h, dose 0.5-5 µM
[22] = Acute toxicity in male BALB/c mouse assessed as physiological changes at 100 mg/kg, po single dose measured for 24 hrs; assay type: organism-based; conditions: in vivo
[23] = AUC (0 to 24 hrs) in Sprague-Dawley rat at 20 mg/kg, po measured up to 24 hrs; assay type: ADME, organism-based; conditions: in vivo
[24] = Oral bioavailability in Sprague-Dawley rat at 20 mg/kg measured up to 24 hrs; assay type: ADME, organism-based; conditions: in vivo
[25] = AUC (0 to infinity) in Sprague-Dawley rat at 5 mg/kg, iv measured up to 24 hrs; assay type: ADME, organism-based; conditions: in vivo
[26] = Volume of distribution (Vz) in Sprague-Dawley rat at 20 mg/kg, po measured up to 24 hrs; assay type: ADME, organism-based; conditions: in vivo
[27] = Acute toxicity in BALB/c mouse assessed as pathological changes in liver tissue by measuring inflammation at 100 mg/kg, po single dose measured for 24 hrs; assay type: organism-based; conditions: in vivo
[28] = Cmax in Sprague-Dawley rat at 5 mg/kg, iv measured up to 24 hrs; assay type: ADME, organism-based; conditions: in vivo
[29] = system: Mus musculus; test: as §1, with “cerulein-induced pancreatitis by measuring pancreatic histopathology” for “plasma TNFalpha level”, “H and E staining based analysis” for “ELISA”; assay type: functional, organism-based; conditions: time 30-360 min
[30] = system: Mus musculus; test: Antiinflammatory activity against cerulein-induced acute pancreatitis in CD1 mouse assessed as increase in plasma 14,15-EET/DHET ratio at 20 mg/kg, ip pretreated with cerulein followed by compound injection on 30 and 150 mins and measured 6 hrs post cerulein treatment relative to model group; assay type: functional; conditions: time 30-360 min
[31] = Tmax in Sprague-Dawley rat at 20 mg/kg, po measured up to 24 hrs; assay type: ADME, organism-based; conditions: in vivo
[32] = system: Mus musculus; test: Anti-inflammatory activity in cerulein-induced acute pancreatitis in CD1 mouse model assessed as decrease in plasma IL-6 level at 20 mg/kg, ip administered 30 and 150 mins post-cerulein treatment measured after 6 hrs post-cerulein treatment by ELISA; assay type: functional, organism-based
[33] = Cmax in Sprague-Dawley rat at 20 mg/kg, po measured up to 24 hrs; assay type: ADME, organism-based; conditions: in vivo
[34] = AUC (0 to 24 hrs) in Sprague-Dawley rat at 5 mg/kg, iv measured up to 24 hrs; assay type: ADME, organism-based; conditions: in vivo
[35] = system: Mus musculus; test: Antiinflammatory activity against cerulein-induced acute pancreatitis in CD1 mouse assessed as increase in plasma 8,9-EET/DHET ratio at 20 mg/kg, ip pretreated with cerulein followed by compound injection on 30 and 150 mins and measured 6 hrs post cerulein treatment relative to model group; assay type: functional; conditions: time 30-360 min
[36] = system: Mus musculus; test: Anti-inflammatory activity in carrageen-induced paw edema BALB/c mouse model assessed as inhibition of soft tissue edema and inflammation measured immediately at 20 mg/kg, po measured at 3 hrs; assay type: functional

For COc1cc2c(cc1OC)[C@H]1Cc3ccc(NC(=O)NCc4ccc(OC(F)(F)F)cc4)cc3CN1CC2, the half-life [1] was 7.2 h, the Activity [2] was “Non-toxic” and the Tmax [3] was 4.8 min. For the same molecule, the Activity [4] was “Active”, the MIC [5] was over 64 µg/mL and the Activity [6] was “Non-toxic”. For the same molecule, the “fold change (FC)” value [7] was 26, the Activity [8] was “Non-toxic” and the half-life [9] was 6.1 h. The “fold change (FC)” value [10] was 5.4, the clearance [11] was 2.85 mL/min/kg and the Activity [12] was “Non-toxic”. The Activity [13] was “Non-toxic”, the CL/F [14] was 3.03 mL/min/kg and the Activity [15] was “Non-toxic”. For the same molecule, the AUC(0-inf) [16] was 110000 ng·h/mL, the Vd [17] was 1.49 L/kg and the MIC [18] was over 64 µg/mL. The Activity [19] was “Non-toxic”, the Activity [20] was “Active” and the Activity [21] was “Non-toxic”. For the same molecule, the Activity [22] was “Non-toxic”, the AUC(0-t) at 24 h [23] was 99500 ng·h/mL and the bioavailability [24] was 89.3%. The AUC(0-inf) [25] was 29600 ng·h/mL, the Vz [26] was 1.889 L/kg and the Activity [27] was “Non-toxic”. For the same molecule, the Cmax [28] was 4860 ng/mL, the Activity [29] was “Active” and the “fold change (FC)” value [30] was 15.4. For the same molecule, the Tmax [31] was 1.67 h, the Activity [32] was “Active” and the Cmax [33] was 10300 ng/mL. For the same molecule, the AUC(0-t) at 24 h [34] was 27800 ng·h/mL, the “fold change (FC)” value [35] was 3.8 and the inhibition in vivo at 20 mg/kg [36] was 33%.
